Experimental data: ChEMBL document CHEMBL1208792, “A novel series of [3.2.1] azabicyclic biaryl ethers as alpha3beta4 and alpha6/4beta4 nicotinic receptor agonists” (Bioorg Med Chem Lett, 2010); call rule not given here
pEC50, pKi: −log10 of the molar value.

Key:
[1] = biological target: Neuronal acetylcholine receptor; alpha4/beta2 (Homo sapiens, UniProt P17787+P43681); assay: Displacement of [3H]epibatidine from alpha4beta2 nicotinic receptor expressed in human HEK293 cells; type: cell-based; conditions: for pKi: read-out: Ki
Neuronal acetylcholine receptor; alpha4/beta2, sequence (P17787 whole entry): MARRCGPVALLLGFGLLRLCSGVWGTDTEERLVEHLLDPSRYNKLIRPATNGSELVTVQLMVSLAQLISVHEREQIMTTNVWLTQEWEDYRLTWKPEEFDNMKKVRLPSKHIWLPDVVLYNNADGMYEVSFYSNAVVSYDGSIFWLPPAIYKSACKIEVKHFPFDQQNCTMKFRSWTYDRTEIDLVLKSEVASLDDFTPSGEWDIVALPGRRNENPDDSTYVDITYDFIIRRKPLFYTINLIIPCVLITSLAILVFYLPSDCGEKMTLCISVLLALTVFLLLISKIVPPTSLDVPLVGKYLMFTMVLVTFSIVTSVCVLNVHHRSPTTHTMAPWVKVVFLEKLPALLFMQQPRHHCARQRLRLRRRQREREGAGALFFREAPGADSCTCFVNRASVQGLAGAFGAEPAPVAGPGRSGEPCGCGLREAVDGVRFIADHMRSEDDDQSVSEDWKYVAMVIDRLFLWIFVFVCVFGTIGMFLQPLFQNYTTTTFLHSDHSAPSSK
Neuronal acetylcholine receptor; alpha4/beta2, sequence (P43681 whole entry): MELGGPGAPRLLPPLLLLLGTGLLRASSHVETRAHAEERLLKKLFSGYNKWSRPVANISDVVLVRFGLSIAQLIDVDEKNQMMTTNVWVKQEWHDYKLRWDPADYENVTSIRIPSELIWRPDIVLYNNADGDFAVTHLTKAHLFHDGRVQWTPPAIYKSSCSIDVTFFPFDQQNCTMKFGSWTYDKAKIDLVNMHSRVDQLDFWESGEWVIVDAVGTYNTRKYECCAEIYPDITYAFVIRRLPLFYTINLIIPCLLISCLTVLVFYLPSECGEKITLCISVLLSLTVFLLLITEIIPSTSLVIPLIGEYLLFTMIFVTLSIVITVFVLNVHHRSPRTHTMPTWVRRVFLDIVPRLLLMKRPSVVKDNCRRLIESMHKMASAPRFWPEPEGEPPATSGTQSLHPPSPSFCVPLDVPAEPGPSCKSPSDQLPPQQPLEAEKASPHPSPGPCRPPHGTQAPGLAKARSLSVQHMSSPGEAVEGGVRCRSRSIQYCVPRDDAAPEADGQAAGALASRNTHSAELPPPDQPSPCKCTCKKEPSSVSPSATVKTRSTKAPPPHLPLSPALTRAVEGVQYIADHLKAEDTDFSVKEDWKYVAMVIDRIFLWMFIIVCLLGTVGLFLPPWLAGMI

[2] = biological target: Acetylcholine receptor; alpha1/beta1/delta/gamma (Homo sapiens, UniProt P02708+P07510+P11230+Q07001); assay: Binding affinity to alpha-1-beta-gamma-delta nicotinic receptor; type: protein-complex assay
Acetylcholine receptor; alpha1/beta1/delta/gamma, sequence (P02708 whole entry): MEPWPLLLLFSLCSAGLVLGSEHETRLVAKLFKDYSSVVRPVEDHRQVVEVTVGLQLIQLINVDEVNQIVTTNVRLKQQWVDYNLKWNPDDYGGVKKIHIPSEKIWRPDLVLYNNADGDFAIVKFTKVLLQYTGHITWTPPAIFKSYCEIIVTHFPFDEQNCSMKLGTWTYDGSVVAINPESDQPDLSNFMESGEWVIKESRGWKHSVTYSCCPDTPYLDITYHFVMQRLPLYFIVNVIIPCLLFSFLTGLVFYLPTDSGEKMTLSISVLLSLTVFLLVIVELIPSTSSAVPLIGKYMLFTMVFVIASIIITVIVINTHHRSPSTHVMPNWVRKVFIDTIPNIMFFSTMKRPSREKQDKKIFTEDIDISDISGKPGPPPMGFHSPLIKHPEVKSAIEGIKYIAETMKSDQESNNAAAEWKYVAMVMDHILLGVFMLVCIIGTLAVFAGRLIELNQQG
Acetylcholine receptor; alpha1/beta1/delta/gamma, sequence (P07510 whole entry): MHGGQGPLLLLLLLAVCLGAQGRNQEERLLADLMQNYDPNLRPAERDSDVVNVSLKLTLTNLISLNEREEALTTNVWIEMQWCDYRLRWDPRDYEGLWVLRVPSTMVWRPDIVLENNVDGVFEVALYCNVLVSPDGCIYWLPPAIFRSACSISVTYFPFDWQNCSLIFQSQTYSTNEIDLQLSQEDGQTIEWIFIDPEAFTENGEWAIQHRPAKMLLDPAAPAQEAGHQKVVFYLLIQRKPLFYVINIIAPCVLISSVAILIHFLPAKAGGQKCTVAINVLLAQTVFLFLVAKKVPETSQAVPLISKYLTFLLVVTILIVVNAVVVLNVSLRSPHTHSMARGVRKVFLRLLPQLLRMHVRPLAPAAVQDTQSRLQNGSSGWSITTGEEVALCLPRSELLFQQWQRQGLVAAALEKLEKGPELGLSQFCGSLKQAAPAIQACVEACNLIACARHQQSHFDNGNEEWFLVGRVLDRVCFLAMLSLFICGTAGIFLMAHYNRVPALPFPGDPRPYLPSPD
Acetylcholine receptor; alpha1/beta1/delta/gamma, sequence (P11230 whole entry): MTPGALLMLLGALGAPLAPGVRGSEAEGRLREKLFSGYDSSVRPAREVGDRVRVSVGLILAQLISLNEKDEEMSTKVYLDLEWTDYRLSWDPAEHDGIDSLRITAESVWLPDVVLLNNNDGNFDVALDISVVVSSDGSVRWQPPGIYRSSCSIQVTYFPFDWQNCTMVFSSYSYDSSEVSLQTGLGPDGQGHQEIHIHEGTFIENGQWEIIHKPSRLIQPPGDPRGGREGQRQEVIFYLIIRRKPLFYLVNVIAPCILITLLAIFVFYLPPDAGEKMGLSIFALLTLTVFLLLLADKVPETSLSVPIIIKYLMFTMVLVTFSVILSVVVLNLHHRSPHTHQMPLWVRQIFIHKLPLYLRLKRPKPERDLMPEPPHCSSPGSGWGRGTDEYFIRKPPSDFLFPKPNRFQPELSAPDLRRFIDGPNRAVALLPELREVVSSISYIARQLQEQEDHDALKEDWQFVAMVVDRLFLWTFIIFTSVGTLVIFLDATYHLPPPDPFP
Acetylcholine receptor; alpha1/beta1/delta/gamma, sequence (Q07001 whole entry): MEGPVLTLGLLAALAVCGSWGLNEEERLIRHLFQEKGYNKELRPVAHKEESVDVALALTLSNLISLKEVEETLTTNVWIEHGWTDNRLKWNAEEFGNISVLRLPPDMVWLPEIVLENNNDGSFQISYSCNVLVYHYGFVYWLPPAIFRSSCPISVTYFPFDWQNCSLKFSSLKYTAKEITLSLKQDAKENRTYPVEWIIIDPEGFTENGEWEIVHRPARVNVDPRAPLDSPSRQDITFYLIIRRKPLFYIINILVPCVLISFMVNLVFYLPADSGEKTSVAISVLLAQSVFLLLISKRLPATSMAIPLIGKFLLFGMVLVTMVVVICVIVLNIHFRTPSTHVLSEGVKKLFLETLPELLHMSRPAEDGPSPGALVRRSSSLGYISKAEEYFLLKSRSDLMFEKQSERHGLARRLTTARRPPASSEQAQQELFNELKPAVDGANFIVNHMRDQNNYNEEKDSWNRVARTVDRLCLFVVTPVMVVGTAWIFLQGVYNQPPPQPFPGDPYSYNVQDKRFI

[3] = biological target: T1, Neuronal acetylcholine receptor; alpha3/beta4 (Homo sapiens, UniProt P30926+P32297); assay: Displacement of [3H]epibatidine from alpha3beta4 nicotinic receptor expressed in human HEK293 cells; type: cell-based
[4] = Displacement of [3H]epibatidine from alpha6/4beta4 nicotinic receptor expressed in human HEK293 cells; type: cell-based
[5] = biological target: Neuronal acetylcholine receptor subunit alpha-7 (Homo sapiens, UniProt P36544); assay: Displacement of [3H]epibatidine from alpha7 nicotinic receptor expressed in human HEK293 cells; type: cell-based
Neuronal acetylcholine receptor subunit alpha-7, sequence (P36544 whole entry): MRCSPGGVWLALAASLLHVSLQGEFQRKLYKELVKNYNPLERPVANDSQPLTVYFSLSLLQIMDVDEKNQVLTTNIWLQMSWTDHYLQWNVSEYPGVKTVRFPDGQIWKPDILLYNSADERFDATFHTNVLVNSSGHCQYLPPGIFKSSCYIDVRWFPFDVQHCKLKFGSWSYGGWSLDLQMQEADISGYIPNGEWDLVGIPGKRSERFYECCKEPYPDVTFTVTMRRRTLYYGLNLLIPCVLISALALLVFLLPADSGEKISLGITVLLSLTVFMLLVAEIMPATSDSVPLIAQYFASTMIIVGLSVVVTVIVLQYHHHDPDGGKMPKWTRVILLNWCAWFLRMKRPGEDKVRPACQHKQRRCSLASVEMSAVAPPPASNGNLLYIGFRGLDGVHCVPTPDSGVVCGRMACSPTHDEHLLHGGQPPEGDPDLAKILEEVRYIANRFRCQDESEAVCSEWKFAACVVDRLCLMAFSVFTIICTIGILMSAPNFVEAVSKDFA

[6] = biological target: T1, Neuronal acetylcholine receptor; alpha3/beta4; assay: Agonist activity at alpha3beta4 nicotinic receptor expressed in human HEK cells assessed as intracellular calcium efflux by FLIPR
[7] = Agonist activity at human alpha6/4beta4 nicotinic receptor expressed in human HEK cells assessed as intracellular calcium […] by FLIPR; type: functional, cell-based, HEK293; conditions: for pEC50: read-out: EC50
[8] = biological target: T1, Neuronal acetylcholine receptor; alpha3/beta4; assay: Agonist activity at alpha3beta4 nicotinic receptor expressed in human HEK cells assessed as intracellular calcium […] by FLIPR relative to control; type: functional, cell-based; conditions: HEK293
[9] = Agonist activity at human alpha6/4beta4 nicotinic receptor expressed in human HEK cells assessed as intracellular calcium […] by FLIPR relative to control; type: functional, HEK293
[10] = (§1) Apparent permeability from apical to basolateral side of MDCK cells; type: ADME, cell-based, Canis lupus familiaris; conditions: dog
[11] = biological target: Voltage-gated inwardly rectifying potassium channel KCNH2 (Homo sapiens, UniProt Q12809); assay: Displacement of [3H]dofetilide from human ERG expressed in HEK293 cells; type: cell-based; conditions: for pKi: read-out: Ki; for Ki: hek293
Voltage-gated inwardly rectifying potassium channel KCNH2, sequence (Q12809 whole entry): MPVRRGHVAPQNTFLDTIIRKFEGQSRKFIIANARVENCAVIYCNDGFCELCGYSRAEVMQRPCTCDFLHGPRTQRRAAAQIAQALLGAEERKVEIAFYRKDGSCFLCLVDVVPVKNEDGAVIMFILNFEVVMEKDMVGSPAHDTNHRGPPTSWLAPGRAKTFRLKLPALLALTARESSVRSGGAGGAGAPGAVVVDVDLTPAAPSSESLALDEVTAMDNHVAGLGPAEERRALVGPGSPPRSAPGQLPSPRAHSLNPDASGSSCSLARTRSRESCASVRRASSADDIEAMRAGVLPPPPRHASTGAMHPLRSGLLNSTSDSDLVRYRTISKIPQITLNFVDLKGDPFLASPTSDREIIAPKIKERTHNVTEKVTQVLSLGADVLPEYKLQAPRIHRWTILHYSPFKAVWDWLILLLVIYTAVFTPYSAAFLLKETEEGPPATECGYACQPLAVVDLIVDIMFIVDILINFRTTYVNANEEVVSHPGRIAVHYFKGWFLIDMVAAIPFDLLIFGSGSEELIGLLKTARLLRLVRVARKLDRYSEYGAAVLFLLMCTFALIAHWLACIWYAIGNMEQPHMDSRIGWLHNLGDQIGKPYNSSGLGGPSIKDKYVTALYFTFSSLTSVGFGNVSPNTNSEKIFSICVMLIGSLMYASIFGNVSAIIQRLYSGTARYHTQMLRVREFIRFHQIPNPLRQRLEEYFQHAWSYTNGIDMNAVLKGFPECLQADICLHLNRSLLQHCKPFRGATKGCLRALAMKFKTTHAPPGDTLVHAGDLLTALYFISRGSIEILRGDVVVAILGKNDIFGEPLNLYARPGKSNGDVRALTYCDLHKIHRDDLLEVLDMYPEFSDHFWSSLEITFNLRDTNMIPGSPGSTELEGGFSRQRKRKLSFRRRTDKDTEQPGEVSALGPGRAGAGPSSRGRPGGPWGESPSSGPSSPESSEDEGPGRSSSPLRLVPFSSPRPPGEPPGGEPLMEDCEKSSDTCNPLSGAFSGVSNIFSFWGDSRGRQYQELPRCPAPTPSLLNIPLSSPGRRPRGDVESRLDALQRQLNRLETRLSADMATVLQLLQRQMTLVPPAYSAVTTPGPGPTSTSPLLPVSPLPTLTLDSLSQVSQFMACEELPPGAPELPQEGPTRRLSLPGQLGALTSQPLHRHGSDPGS

[12] = tested on: human MDR (P-glycoprotein); assay: (§2) Efflux ratio of permeability from basolateral to apical side over apical to basolateral side of MDCK cells expressing human MDR gene; type: ADME, cell-based, Canis lupus familiaris; conditions: dog, MDCK-MDR1
[13] = tested on: Mus musculus; assay: Antipsychotic effect in sc dosed CD1 mouse assessed as inhibition of mescaline-induced scratching behavioral response; type: functional
[14] = tested on: Mus musculus; assay: Antipsychotic effect in sc dosed CD1 mouse assessed as prepulse inhibition; type: functional; conditions: read-out: MED
[15] = tested on: MDCK; assay: as §1; type: ADME, cell-based, Canis lupus familiaris; conditions: dog
[16] = tested on: MDCK; assay: as §2; type: ADME, cell-based, Canis lupus familiaris; conditions: dog, MDCK

| SMILES | pKi [1] | pKi [2] | pKi [3] | pKi [4] | pKi [5] | pEC50 [6] | Efficacy [8] [%] | Efficacy [9] [%] | pEC50 ([7]; Homo sapiens, HEK293) | Papp A→B [10] [×10⁻⁶ cm/s] | efflux ratio [12] | Ki [11] | further results |
| --- | --- | --- | --- | --- | --- | --- | --- | --- | --- | --- | --- | --- | --- |
| Cl.NC(=O)c1cncc(-c2ccccc2O[C@H]2C[C@@H]3CNC[C@H]2C3)c1 (stereo in doubt) | < 6.02 | < 4.82 | 8.42 | 7.90 | < 4.82 | 7.43 | 102 | 59.5 | – | – | – | – | EC50 ([7]; hek293): Not Active |
| Cl.c1cncc(-c2ccccc2O[C@H]2C[C@@H]3CNC[C@H]2C3)c1 (racemic) | < 5.88 | – | 8.89 | 8.42 | – | 7.24 | – | 32.5 | 7.28 | 30.3 | 1.75 | – | pKi [11]: 5.67 |
| COc1cncc(-c2ccccc2O[C@H]2C[C@@H]3CNC[C@H]2C3)c1.Cl (racemic) | < 6.51 | – | 7.03 | 8.05 | – | 7.49 | 11 | <20 | 7.54 | 24.4 | 1.76 | Not Active | – |
| CCS(=O)(=O)Nc1cncc(-c2ccccc2O[C@H]2C[C@@H]3CNC[C@H]2C3)c1.Cl (racemic) | < 6.22 | < 4.82 | 9.83 | 9.50 | 5.01 | 8.96 | 108 | 182 | 9.43 | 0.44 | 0.93 | Not Active | – |
| CS(=O)(=O)Nc1cncc(-c2ccccc2O[C@H]2C[C@@H]3CNC[C@H]2C3)c1.Cl | 6.47 | 4.93 | 9.80 | 9.77 | 5.32 | 8.51 | – | 148 | – | 1.17 | 4.38 | Not Active | pEC50 ([7]; hek293): 8.49; ED50 ([13]; read-out: ID50 (the source's name)): 0.66 mg/kg; minimal effective dose ([13]; read-out: MED): 0.1 mg/kg; minimal effective dose [14]: 3.2 mg/kg |
| Cl.Oc1cncc(-c2ccccc2O[C@@H]2C[C@H]3CNC[C@@H]2C3)c1 | 6.83 | 5.08 | 8.69 | 8.15 | < 4.82 | 7.46 | 52 | 70 | – | 2.66 | 3.5 | Not Active | – |
| CC(=O)Nc1cncc(-c2ccccc2O[C@H]2C[C@@H]3CNC[C@H]2C3)c1.Cl (racemic) | < 6.21 | 6.28 | 8.02 | 7.77 | < 4.82 | 6.60 | 100 | 51 | 7.45 | – | – | – | – |
| Oc1cncc(-c2ccccc2O[C@H]2C[C@@H]3CNC[C@H]2C3)c1 (racemic) | – | – | – | – | – | – | 117 | – | – | – | – | – | – |
| Cl.Oc1cncc(-c2ccccc2O[C@H]2C[C@@H]3CNC[C@H]2C3)c1 (racemic) | 6.59 | 5.30 | 9.73 | 9.37 | 5.80 | 8.59 | – | 75 | – | 4.05 | 5.84 | – | pEC50 ([7]; hek293): 8.37; pKi [11]: 5.80 |
| Cl.c1cncc(-c2ccccc2O[C@H]2C[C@@H]3CNC[C@H]2C3)c1 | < 6.08 | 5.99 | 8.92 | 8.67 | 5.48 | > 7.00 | – | 35 | – | – | – | Not Active | Papp [15]: 28.7 ×10⁻⁶ cm/s; Ratio [16]: 1.65 |
| Cl.Fc1cncc(-c2ccccc2O[C@H]2C[C@@H]3CNC[C@H]2C3)c1 (racemic) | < 5.82 | < 4.77 | 8.66 | 8.00 | < 4.87 | 6.50 | 84.5 | 45 | 6.61 | 10 | 1.29 | Not Active | – |
| Cl.Oc1ccncc1-c1ccccc1O[C@H]1C[C@@H]2CNC[C@H]1C2 (racemic) | < 6.38 | < 4.82 | 8.68 | 8.50 | < 4.82 | 7.79 | 82 | 91 | 8.30 | – | – | – | – |
| CS(=O)(=O)Nc1cncc(-c2ccccc2O[C@H]2C[C@@H]3CNC[C@H]2C3)c1.Cl (racemic) | < 6.37 | < 4.87 | 9.61 | 9.62 | 5.32 | 8.52 | – | 230 | 8.50 | – | – | – | – |
| Cl.Oc1cncc(-c2ccccc2O[C@H]2C[C@@H]3CNC[C@H]2C3)c1 | 6.60 | 5.77 | 9.13 | 9.75 | < 4.87 | 8.52 | – | 230 | – | – | – | Not Active | pEC50 ([7]; hek293): 6.55; Papp [15]: 3.36 ×10⁻⁶ cm/s; Ratio [16]: 5.02 |
| CN1CCC[C@H]1c1cccnc1 [NICOTINE] | – | 5.83 | – | 6.77 | – | – | – | – | – | – | – | – | – |
| CS(=O)(=O)Nc1cncc(-c2ccccc2O[C@H]2C[C@@H]3CNC[C@H]2C3)c1 (racemic) | – | – | – | – | – | – | 116 | – | – | – | – | – | – |
| c1cncc(-c2ccccc2O[C@@H]2C[C@H]3CNC[C@@H]2C3)c1 | < 6.21 | – | 7.77 | 7.11 | – | – | 46 | – | 6.90 | – | – | – | – |
| CS(=O)(=O)Nc1ccncc1-c1ccccc1O[C@H]1C[C@@H]2CNC[C@H]1C2.Cl (racemic) | 6.60 | < 4.82 | 9.42 | 8.28 | 5.12 | 6.95 | 117 | 48 | 8.37 | – | – | – | – |
| COc1ccncc1-c1ccccc1O[C@H]1C[C@@H]2CNC[C@H]1C2.Cl (racemic) | 6.32 | – | 9.05 | 8.75 | – | > 7.00 | 49 | 23 | < 4.52 | – | – | – | – |
| CC(C)S(=O)(=O)Nc1cncc(-c2ccccc2O[C@H]2C[C@@H]3CNC[C@H]2C3)c1.Cl (racemic) | 6.13 | 5.37 | 9.90 | 9.69 | 4.84 | 9.80 | 57 | 160 | 7.01 | 0.56 | 1.49 | Not Active | – |
| Oc1cncc(-c2ccccc2O[C@H]2C[C@@H]3CNC[C@H]2C3)c1 | – | – | – | – | – | – | 118 | – | – | – | – | – | – |
| Cl.Nc1ccncc1-c1ccccc1O[C@H]1C[C@@H]2CNC[C@H]1C2 (racemic) | < 5.98 | 5.35 | 9.02 | 8.69 | – | 7.47 | 97 | 61 | 6.58 | – | – | – | – |
| CS(=O)(=O)Nc1cncc(-c2ccccc2O[C@H]2C[C@@H]3CNC[C@H]2C3)c1 | – | – | – | – | – | – | 120 | – | – | – | – | – | – |
| Cl.Nc1cncc(-c2ccccc2O[C@H]2C[C@@H]3CNC[C@H]2C3)c1 (racemic) | < 6.24 | < 4.82 | 8.83 | 8.23 | < 4.82 | 7.47 | 80.5 | 107 | 7.19 | – | – | – | – |
| CS(=O)(=O)Nc1cncc(-c2ccccc2O[C@@H]2C[C@H]3CNC[C@@H]2C3)c1.Cl | 5.54 | < 4.82 | 8.88 | 8.43 | < 4.82 | 8.53 | 122 | 182 | 8.64 | 0.84 | 4.65 | Not Active | – |
| NC(=O)c1cncc(-c2ccccc2O[C@@H]2C[C@H]3CNC[C@@H]2C3)c1 (stereo in doubt) | – | – | 6.30 | 5.95 | – | – | – | – | – | – | – | – | Ki ([1]; hek293): Not Active |
| c1cncc(-c2ccccc2O[C@H]2C[C@@H]3CNC[C@H]2C3)c1 (racemic) | – | – | – | – | – | – | 45 | – | – | – | – | – | – |
| c1cnc2cc3c(cc2n1)[C@@H]1CNC[C@H]3C1 [VARENICLINE] | – | 5.09 | – | 7.05 | – | – | – | – | – | – | – | – | – |
| Cl.Fc1ccncc1-c1ccccc1O[C@H]1C[C@@H]2CNC[C@H]1C2 (racemic) | – | – | 9.07 | 8.88 | – | 6.71 | 65 | – | 6.20 | 13.3 | 1.26 | – | – |
